Laboratory results published in patent publication US12599673B2, “Techniques for enhancing the selectivity and efficacy of antimicrobial and anticancer polymer agents” (International Business Machines Corporation, priority 2018, dated 2026).

Experiments:
[1] = test system: P. aeruginosa; test: Minimal inhibitory concentration toward P. aeruginosa; format: cell-based, Pseudomonas aeruginosa
Protocol: FIG. 15A presents a Graph 1500 illustrating the antimicrobial selectivity and efficacy of example therapeutic polymers and coacervate complexes against P. aeruginosa in accordance with various embodiments described herein. […] The tested efficacy is based on their respective minimal inhibitory concentrations (MICs) toward P. aeruginosa. […] The commercial standard antibiotic Polymyxin B sulfate (PolyB) and Complex X were also tested for selectivity and efficacy/toxicity for comparison. Complex X is used herein to refer to a coacervate complex formed with Polymer A in combination with PolyB (as opposed to Polymer A and the disclosed therapeutic polyguanidinium based Polymers). FIG. 15B provides a corresponding Table 1501 for Graph 1500. In addition to the MIC and HC50 values reflected in Graph 1500, Table 1501 also identifies the […] (SI) of the respective polymers and corresponding coacervate complexes. Repetitive description of like elements employed in respective embodiments is omitted for sake of brevity.

[2] = test system: THP-1 cells (a human monocytic cell line); test: Biocompatibility/toxicity with THP-1 cells (cell viability); format: cell-based
Protocol: FIG. 17 presents a Graph 1700 illustrating the biocompatibility/toxicity of various therapeutic polymers and coacervate complexes with mammalian cells in accordance with various embodiments described herein. […] In accordance with the data reflected in Graph 1700, different dosages (e.g., from 2 ppm to 1000 ppm in μg/mL) of the respective polymers and coacervate complexes were incubated with the THP-1 cells for 24 hours at 37° C. The polymers tested include Polymer A, Polymer B, Polymer C, Polymer D, and Polymer E. The coacervates tested include Complex B, Complex C, Complex D, and Complex E. The percent cell viability detected at concentrations less than 63 ppm were substantially the same as those shown for 63 ppm, and thus are not depicted to minimize the complexity of the visualization.

[3] = In vivo toxicity in mice (LD50)
Protocol: FIGS. 21A and 21B provides tables illustrating the in vivo toxicity and antimicrobial efficacy of coacervate complexes in accordance with various embodiments described herein. […] The data presented in both tables 2101 and 2102 reflect testing using a mouse model.
With reference to FIG. 21 and Table 2101 the in vivo toxicity of different antimicrobials was measured as a function of the lethal dose 50 (LD50) values (which is the amount of antimicrobial that kills 50% of the tested population). […] In fact, the LD50 level of Complex E is so high that is cannot be measured. […] This in-vivo toxicity data is further commensurate with the in vitro toxicity data and in vitro hemolysis data discussed above.

Polymyxin B sulfate [PolyB]
MIC toward P. aeruginosa [1]: 0.5 mg/L
percent cell viability THP-1 ([2]; 1000 ppm, 24 hours at 37° C): below 20%
cell viability THP-1 ([2]; about 250 ppm): 50%
cell viability THP-1 ([2]; about 500 ppm): ~30%
LD50 [3]: 5.4 mg/kg
